A word on the EC50: it is the concentration at which the effect is half-maximal. For orientation: Ki means the dissociation constant of the complex between target and ligand, obtained from inhibition or displacement. As usually defined, the TGI is how far tumour growth fell short of that in controls. A word on the IC50: it is the midpoint of a concentration-inhibition curve.

The source of these data is patent US12220419B2, “BCL-2 inhibitors” (Newave Pharmaceutical Inc., priority 2018, dated 2025).

One series deals with CLL. The conditions noted are these: average, read-out: average EC50, apoptosis in CLL; cited from earlier work.
The next series concerns RS4;11 cells. The conditions noted are these: cited from earlier work.
For a further series, the system named is RS4; 11 xenografts. The conditions noted are these: single dose of 100 mg/kg; cited from earlier work.
For the next series, the target named is Mcl-1 (Homo sapiens (Human), UniProt Q07820). The conditions noted are these: cited from earlier work.
Mcl-1, sequence (Q07820 whole entry): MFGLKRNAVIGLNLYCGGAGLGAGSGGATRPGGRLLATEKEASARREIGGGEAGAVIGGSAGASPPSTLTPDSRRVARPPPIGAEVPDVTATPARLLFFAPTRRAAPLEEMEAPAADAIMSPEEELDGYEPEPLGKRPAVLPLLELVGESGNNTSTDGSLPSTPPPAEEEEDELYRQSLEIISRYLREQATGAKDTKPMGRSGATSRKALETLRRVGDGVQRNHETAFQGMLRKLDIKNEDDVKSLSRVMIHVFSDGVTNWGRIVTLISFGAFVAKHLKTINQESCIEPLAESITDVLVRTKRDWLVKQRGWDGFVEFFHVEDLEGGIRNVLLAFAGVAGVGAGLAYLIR
The test system of series [1] is acute lymphoblastic leukemia xenograft. To be noted: oral administration, alone; cited from earlier work.
The target in a further series is Bcl-w (Homo sapiens (Human), UniProt Q92843). The conditions noted are these: cited from earlier work.
Bcl-w, sequence (Q92843 whole entry): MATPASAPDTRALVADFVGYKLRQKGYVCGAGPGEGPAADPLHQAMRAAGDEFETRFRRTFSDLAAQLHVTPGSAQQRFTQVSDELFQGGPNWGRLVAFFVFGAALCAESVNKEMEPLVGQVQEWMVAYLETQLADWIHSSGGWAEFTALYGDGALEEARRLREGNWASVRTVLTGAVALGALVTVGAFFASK
Series [2] concerns small-cell lung cancer xenograft. To be noted: oral administration, alone; cited from earlier work.
The test system of the next series is H345 xenograft. The conditions noted are these: 100 mg/kg/day, H345 xenograft model; cited from earlier work.
For the next series, the system named is circulating platelets. The conditions noted are these: clinical trial, single agent; cited from earlier work.
A further series concerns SCLC H146 cell line. To be noted: read-out: IC50 against SCLC H146 cell line; cited from earlier work.
For series [3] the following is noted: cited from earlier work.
The conditions of series [4]: in vivo; cited from earlier work.
The target in the next series is BCL-2 (Homo sapiens (Human), UniProt P10415). Kind of series: BCL-2 competition binding (fluorescence polarization) assay. The conditions noted are these: fluorescein-labeled BH3 peptide 15 nM, purified BCL-2 protein 30 nM, 3 hours incubation at room temperature; read-out: BCL2 IC50. As for the experimental part:
Biological Example 1: BCL-2 Competition Binding (Fluorescence Polarization) Assay
The fluorescence-labeled 23 amino acid peptide BH3 was purchased from CalBiochem ([…]). […] This binding assay was performed in 96-well plate and with each assay contained 15 and 30 nM of labeled peptide and purified BCL-2 protein (purchased from R&D Systems, Inc). The assay buffer contained 20 mM Hepes (pH 7.0), 50 mM KCl, 5 mM MgCl2, 20 mM Na2MoO4, 0.1 mg/ml Bovine Gamma Globulin and 0.01% NP40. Compounds were diluted in DMSO and added to the final assay with concentration range from 20 μM to 2 nM. The polarization degree (mP) value was determined by BioTek Synergy II with background subtraction after 3 hours of incubation at room temperature. IC50 was calculated using Prism software with sigmoidal dose-response curve fitting. ABT-737 was used as reference compound. Such assays, carried out with a range of doses of test compounds, allowed the determination of an approximate IC50 value.

Series [5] relates to BCL-2-dependent acute lymphoblastic leukemia (ALL) cell line RS4;11. Kind of series: In vitro anti-proliferation assay (ATPlite luminescence) in RS4;11. To be noted: RS4;11 cells, about 72 hours, medium with 5% FBS or 10% normal human serum. In kind it is cell-based. As to the method: Cell antiproliferation was assayed by PerkinElmer ATPlite™ Luminescence Assay System. Briefly, the various test cancer cell lines were plated at a density of about 1×10^4 cells per well in Costar 96-well plates, and were incubated with different concentrations of compounds for about 72 hours in medium supplemented with 5% FBS or 10% normal human serum (NHS). One lyophilized substrate solution vial was then reconstituted by adding 5 mL of substrate buffer solution, and was agitated gently until the solution was homogeneous. About 50 μL of mammalian cell lysis solution was added to 100 μL of cell suspension per well of a microplate, and the plate was shaken for about five minutes in an orbital shaker at 700 rpm. This procedure was used to lyse the cells and to stabilize the ATP. Next, 50 μL substrate solution was added to the wells and microplate was shaken for five minutes in an orbital shaker at 700 rpm. Finally, the luminescence was measured by a PerkinElmer TopCount® Microplate Scintillation Counter. Such assays, carried out with a range of doses of test compounds, allowed the determination of the cellular anti-antiproliferative IC50 of the compounds of the present invention.

SMILES strings stand for the structures.

BCL-2, sequence (P10415 whole entry): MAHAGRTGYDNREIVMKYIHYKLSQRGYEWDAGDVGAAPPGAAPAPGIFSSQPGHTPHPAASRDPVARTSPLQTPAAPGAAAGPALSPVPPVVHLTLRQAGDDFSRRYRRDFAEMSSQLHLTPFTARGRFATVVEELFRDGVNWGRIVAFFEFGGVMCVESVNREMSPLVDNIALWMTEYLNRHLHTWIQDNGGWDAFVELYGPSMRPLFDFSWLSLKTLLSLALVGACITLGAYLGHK

In the case of `CC1(C)CCC(CN2CCN(c3ccc(C(=O)NS(=O)(=O)c4ccc(NCC5CCOCC5)c([N+](=O)[O-])c4)c(Oc4cnc5[nH]ccc5c4)c3)CC2)=C(c2ccc(Cl)cc2)C1` [ABT-199], the values for the EC50 in the series with CLL and with RS4;11 cells were 3 nM and 8 nM, respectively. For the same molecule, the “maximal tumor growth inhibition” value with RS4; 11 xenografts is recorded as 95%. In addition, in the series with RS4; 11 xenografts, the tumor growth delay is 152%. Moreover, the “activity to Mcl-1” value at Mcl-1 is listed as “no activity”.
On to `CC1(C)CCC(c2ccc(Cl)cc2)=C(CN2CCN(c3ccc(C(=O)NS(=O)(=O)c4ccc(N[C@H](CCN5CCOCC5)CSc5ccccc5)c(S(=O)(=O)C(F)(F)F)c4)cc3)CC2)C1` [ABT-263], for which the “tumor response, acute lymphoblastic leukemia xenograft models” value in series [1] is “complete tumor regressions”. Moreover, at Bcl-w, the Ki is at most 1 nM. Also, the “tumor response, small-cell lung cancer xenograft models” value in series [2] is listed as “complete tumor regressions”. Moreover, in the series on H345 xenograft, the TGI is 80% and the “treated tumors indicating at least a 50% reduction in tumor volume” value is 20%. Also, in the series on circulating platelets, the “number of circulating platelets” value is given as “rapid, concentration-dependent decrease”. Moreover, the IC50 in the series on SCLC H146 cell line is 110 nM.
Take `CN(C)CC[C@H](CSc1ccccc1)Nc1ccc(S(=O)(=O)NC(=O)c2ccc(N3CCN(Cc4ccccc4-c4ccc(Cl)cc4)CC3)cc2)cc1[N+](=O)[O-]` [ABT-737]: the aqueous solubility result in series [3] is recorded as “low aqueous solubility”. The oral bioavailability result in series [4] is reported as “not orally bioavailable”.
For `O=C(NS(=O)(=O)c1ccc(NC[C@H]2COCCO2)c([N+](=O)[O-])c1)c1ccc(N2CCN(CC3=C(c4ccc(Cl)cc4)CCCC3)CC2)cc1N1CCCOc2nc3[nH]ccc3cc21` [Example 74, 4-(4-[[2-(4-chlorophenyl)cyclohex-1-en-1-yl]methyl]piperazin-1-yl)-N-(4-[[(2S)-1,4-dioxan-2-ylmethyl]amino]-3-nitrobenzenesulfonyl)-2-[14-oxa-2,4,10-triazatricyclo[7.5.0.0^[3,7]]tetradeca-1(9),2,5,7-tetraen-10-yl]benzamide], the IC50 on BCL-2 is 0.3 nM; in [5], 1.7 nM.
For `O=C(NS(=O)(=O)c1ccc(NC[C@H]2COCCO2)c([N+](=O)[O-])c1)c1ccc(N2CCN(CC3=C(c4ccc(Cl)cc4)CCCCC3)CC2)cc1N1CCCOc2nc3[nH]ccc3cc21` [Example 75, 4-(4-[[2-(4-chlorophenyl)cyclohept-1-en-1-yl]methyl]piperazin-1-yl)-N-(4-[[(2S)-1,4-dioxan-2-ylmethyl]amino]-3-nitrobenzenesulfonyl)-2-[14-oxa-2,4,10-triazatricyclo[7.5.0.0^[3,7]]tetradeca-1(9),2,5,7-tetraen-10-yl]benzamide] the same measures were 0.6 nM and 2.7 nM.
For `COC1(C)CCC(c2ccc(Cl)cc2)=C(CN2CCN(c3ccc(C(=O)NS(=O)(=O)c4ccc(NC[C@H]5COCCO5)c([N+](=O)[O-])c4)c(N4CCCOc5nc6[nH]ccc6cc54)c3)CC2)C1` (stereo partly drawn) [Example 77, 4-(4-[[2-(4-chlorophenyl)-5-methoxy-5-methylcyclohex-1-en-1-yl]methyl]piperazin-1-yl)-N-(4-[[(2S)-1,4-dioxan-2-ylmethyl]amino]-3-nitrobenzenesulfonyl)-2-[14-oxa-2,4,10-triazatricyclo[7.5.0.0[3,7]]tetradeca-1(9),2,5,7-tetraen-10-yl]benzamide] the same measures were 0.08 nM and 0.8 nM.
